Consider 14 molecules from ChEMBL document CHEMBL3600349 (Bioorg Med Chem Lett, 2015).

What is called half-life is the time in which the quantity being followed falls by half. For orientation: IC50 means the concentration at which inhibition is half-maximal. Broadly, the logP is the decadic logarithm of the partition coefficient of the neutral form, usually between octanol and water. As a reminder, the inhibition is the relative decrease from the control value, in per cent.

The nature of data set [1]: Half life in rat liver microsomes. Type of data set: ADME.
Data set [2] has as its target Melanin-concentrating hormone receptor 1 (Homo sapiens, UniProt Q99705). The data set can be described thus: Displacement of [125I]-MCH from human MCH-R1 expressed in CHO/Galpha16 cells after 60 mins by scintillation counting. Type of data set: cell-based. In general terms: In a radioligand displacement assay an active substance lowers the binding of a labelled ligand.

The nature of data set [3]: Lipophilicity, log P of the compound by HPLC analysis. It counts as physicochemical.
Data set [4] can be described thus: Intrinsic clearance in human hepatocytes assessed per 10^6 cells. Type of data set: ADME, cell-based, Hepatocyte. Particulars: read-out: CLH.
The subject of data set [5] is Rattus norvegicus. In words: Antiobesity activity in diet-induced obese Wistar rat model assessed as reduction of body weight at 5 mg/kg, po qd after 4 weeks. Type of data set: functional. The arrangement: scale not given: the % may be the effect or the level left.
The subject of data set [6] is U-937. In words: Toxicity in human U937 cells assessed as first effect concentration for phospholipidosis by nile red uptake assay. Type of data set: cell-based.
Data set [7] has as its target hERG (KCNH2) (Homo sapiens, UniProt Q12809). The data set can be described thus: Inhibition of human ERG at 10 uM by patch clamp assay. Background: The patch-clamp technique gives a direct electrical read-out from membranes.
The species named for data set [8] is Homo sapiens. In words: Selectivity ratio, ratio of muscarinic M1 receptor (unknown origin) to human MCH-R1.
For data set [9], the species on record is Homo sapiens. In words: Selectivity ratio, ratio of 5HT2A receptor (unknown origin) to human MCH-R1.

Sequence of hERG (KCNH2) (Q12809 whole entry): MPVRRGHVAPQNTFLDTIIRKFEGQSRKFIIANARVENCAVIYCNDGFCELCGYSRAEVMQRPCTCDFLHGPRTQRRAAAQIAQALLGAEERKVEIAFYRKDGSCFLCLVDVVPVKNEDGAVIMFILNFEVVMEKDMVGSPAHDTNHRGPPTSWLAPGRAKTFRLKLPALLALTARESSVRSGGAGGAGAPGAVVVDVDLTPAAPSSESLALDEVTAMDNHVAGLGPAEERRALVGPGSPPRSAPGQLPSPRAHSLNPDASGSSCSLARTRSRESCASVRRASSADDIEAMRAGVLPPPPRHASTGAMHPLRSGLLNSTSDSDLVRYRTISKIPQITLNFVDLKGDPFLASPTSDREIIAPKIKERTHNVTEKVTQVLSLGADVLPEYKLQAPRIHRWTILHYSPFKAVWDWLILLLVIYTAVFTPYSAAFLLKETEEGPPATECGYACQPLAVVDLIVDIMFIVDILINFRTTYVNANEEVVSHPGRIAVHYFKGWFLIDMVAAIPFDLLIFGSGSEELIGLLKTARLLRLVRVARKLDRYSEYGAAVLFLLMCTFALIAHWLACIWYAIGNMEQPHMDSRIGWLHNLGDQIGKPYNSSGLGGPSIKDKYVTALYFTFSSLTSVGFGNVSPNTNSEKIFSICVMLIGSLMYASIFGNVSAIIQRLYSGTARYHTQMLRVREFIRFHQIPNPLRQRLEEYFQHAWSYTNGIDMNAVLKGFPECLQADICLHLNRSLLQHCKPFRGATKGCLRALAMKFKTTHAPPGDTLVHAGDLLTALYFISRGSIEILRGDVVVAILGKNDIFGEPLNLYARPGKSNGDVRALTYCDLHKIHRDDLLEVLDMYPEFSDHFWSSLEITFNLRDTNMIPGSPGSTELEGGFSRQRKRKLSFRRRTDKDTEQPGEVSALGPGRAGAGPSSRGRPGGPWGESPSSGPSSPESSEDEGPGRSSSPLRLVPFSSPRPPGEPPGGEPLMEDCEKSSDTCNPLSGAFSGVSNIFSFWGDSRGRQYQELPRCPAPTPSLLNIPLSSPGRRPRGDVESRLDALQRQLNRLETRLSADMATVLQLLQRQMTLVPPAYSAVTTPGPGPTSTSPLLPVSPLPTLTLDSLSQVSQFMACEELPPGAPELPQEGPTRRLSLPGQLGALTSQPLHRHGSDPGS
Sequence of Melanin-concentrating hormone receptor 1 (Q99705 whole entry): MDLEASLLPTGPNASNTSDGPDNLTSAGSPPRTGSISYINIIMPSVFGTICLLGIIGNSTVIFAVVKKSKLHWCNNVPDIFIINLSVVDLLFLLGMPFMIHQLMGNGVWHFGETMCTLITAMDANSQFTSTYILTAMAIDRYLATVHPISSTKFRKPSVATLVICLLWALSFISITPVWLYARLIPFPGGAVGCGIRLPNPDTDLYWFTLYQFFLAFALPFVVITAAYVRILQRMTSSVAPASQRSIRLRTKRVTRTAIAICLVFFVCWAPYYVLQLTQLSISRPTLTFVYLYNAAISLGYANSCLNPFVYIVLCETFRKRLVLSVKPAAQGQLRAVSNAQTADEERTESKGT

In data set [1], `CN(C)Cc1ccc(C(=O)Cn2ccc(OCc3ccc(Br)cn3)cc2=O)cc1` had a half-life of 32 min. In data set [2], this molecule displayed an IC50 of 28 nM. Also, in data set [3], the logP stood at 2.5. Further, the hepatocyte CLint in data set [4] came to 66 µL/min/1e6 cells.
`CC(C)CC(N(C)C)C1(c2ccc(Cl)cc2)CCC1` (stereo not given) [SIBUTRAMINE]: the Activity in data set [5] came out at 10.9%.
In data set [1], `Cc1cc(CN(C)C)ccc1C(=O)Cn1ncc(OCc2ccccc2)cc1=O` yielded a half-life of 15 min. For the same molecule, in data set [2], the IC50 is 8.7 nM. For the same molecule, the logP in [3] was 3.8. Moreover, the Activity in [6] came out at 50 µM. Further, in data set [4], the hepatocyte CLint worked out at 4.8 µL/min/1e6 cells. This molecule yielded an inhibition at 10 µM in data set [7] of 88%.
`CN(C)Cc1ccc(C(=O)Cn2ccc(OCc3ccc(Cl)cn3)cc2=O)cc1`: in data set [1], the half-life was above 45 min. Besides, the IC50 in data set [2] turned out to be 41 nM. This molecule also displayed a logP in [3] of 2.3. For the same molecule, the hepatocyte CLint in [4] came out at 69 µL/min/1e6 cells.
In [1], `CN(C)Cc1ccc(C(=O)Cn2ccc(OCc3ccccc3)cc2=O)cc1` returned a half-life of 23 min. In addition, the Ratio in data set [8] and in data set [9] was above 200 throughout. In data set [2], this molecule returned an IC50 of 13 nM. Also, the logP in [3] came out at 3. Also, in data set [6], the Activity came to 100 µM. For the same molecule, the hepatocyte CLint in data set [4] worked out at 24 µL/min/1e6 cells. Besides, at 10 µM the inhibition in [7] was 63%.
On to `CN(C)Cc1ccc(C(=O)Cn2ncc(OCc3ccc(Br)cn3)cc2=O)cc1`, for which, in [1], the half-life was found to be 7 min. The molecule further returned a half-inhibitory concentration (IC50) in data set [2] of 22 nM. The logP in data set [3] was found to be 3.1. For the same molecule, the hepatocyte CLint in data set [4] was determined as 58 µL/min/1e6 cells.
With `Cc1cc(CN(C)C)ccc1C(=O)Cn1ncc(OCc2ccc(Cl)cn2)cc1=O`, the half-life in data set [1] is above 45 min. Also, in data set [3], the logP came to 3.1. Further, the Activity in data set [6] was 50 µM.
`Cc1cc(CN(C)C)ccc1C(=O)Cn1ccc(OCc2ccccc2)cc1=O`: in data set [1], the half-life was 24 min. Further, the Ratio in data set [8] and in data set [9] was above 200 each time. In data set [3], the logP stood at 3.3. In data set [6], the Activity was 50 µM. The hepatocyte CLint in data set [4] was 4 µL/min/1e6 cells. The molecule further came in with an inhibition at 10 µM in data set [7] of 67%.
As for `CN(C)Cc1ccc(C(=O)Cn2ncc(OCc3ccc(Cl)cn3)cc2=O)cc1`, the half-life in data set [1] came out at 14 min. In data set [2], this molecule returned an IC50 of 25 nM. The same molecule had a logP in data set [3] of 2.9. For the same molecule, the Activity in data set [6] is 50 µM. Also, the inhibition at 10 µM in data set [7] stood at 39%.
In the case of `Cc1cc(CN(C)C)ccc1C(=O)Cn1ncc(OCc2ccc(Br)cn2)cc1=O`, the half-life in [1] came out at 29 min. Moreover, the logP in data set [3] came to 3.4. The Activity in data set [6] amounted to 50 µM. In addition, the hepatocyte CLint in [4] is 12 µL/min/1e6 cells.
Regarding `CN(C)Cc1ccc(C(=O)Cn2ncc(OCc3ccccc3)cc2=O)cc1`, in data set [1], the half-life was 6 min. Besides, the IC50 in [2] amounted to 10 nM. Further, the logP in [3] was 3.6. Moreover, in [4], the hepatocyte CLint stood at 17 µL/min/1e6 cells.
With `Cc1cc(CN(C)C)ccc1C(=O)Cn1ccc(OCc2ccc(Br)cn2)cc1=O`, in data set [1], the half-life came to 45 min. For the same molecule, the logP in data set [3] stood at 2.8. In data set [6], the Activity is 50 µM. Further, the hepatocyte CLint in data set [4] came out at 21 µL/min/1e6 cells. The molecule also returned an inhibition at 10 µM in data set [7] of 42%.
Molecule `CN(C)Cc1ccc(CCn2ccc(OCc3ccccc3)cc2=O)cc1` yielded a half-life in data set [1] of 5 min. Moreover, in data set [2], the IC50 was 7 nM. In addition, the logP in [3] came to 3.2. Further, the Activity in data set [6] stood at 100 µM.
In turn, `Cc1cc(CN(C)C)ccc1C(=O)Cn1ccc(OCc2ccc(Cl)cn2)cc1=O` returned a half-life in data set [1] of 44 min. In [2], this molecule showed an IC50 of 33 nM. The same molecule displayed a logP in data set [3] of 2.7. For the same molecule, the Activity in data set [6] was determined as 50 µM. Moreover, the hepatocyte CLint in data set [4] turned out to be 14 µL/min/1e6 cells. In data set [7], testing at 10 µM gave an inhibition of 41%.
